The values that follow are results of earlier work, collected in patent publication US11603416B2, “Method for preparation of derivatives of gram-positive bacteria surface capsular polysaccharide” (priority 2018, dated 2023).

The test system of the data set is children with severe ASD. As to conditions: oral administration; effect disappears once the drug is discontinued.

For the molecule `CN[C@H](CC(C)C)C(=O)N[C@H]1C(=O)N[C@@H](CC(N)=O)C(=O)N[C@H]2C(=O)N[C@H]3C(=O)N[C@H](C(=O)N[C@H](C(=O)O)c4cc(O)cc(O)c4-c4cc3ccc4O)[C@H](O)c3ccc(c(Cl)c3)Oc3cc2cc(c3O[C@@H]2O[C@H](CO)[C@@H](O)[C@H](O)[C@H]2O[C@H]2C[C@](C)(N)[C@H](O)[C@H](C)O2)Oc2ccc(cc2Cl)[C@H]1O` [vancomycin], the “child patients whose autism symptoms have been relieved for a short time” value was 80%.
